The results in this text go back to ChEMBL document CHEMBL4257493, “Discovery of 7-hydroxyaporphines as conformationally restricted ligands for beta-1 and beta-2 adrenergic receptors” (Medchemcomm, 2018).

SMILES strings stand for the structures.

In the experiment the target is Beta-2 adrenergic receptor (Homo sapiens, UniProt P07550). Kind of experiment: Displacement of [3H]-CGP-12177 from human beta2-adrenergic receptor. (In a radioligand displacement assay an active substance lowers the binding of a labelled ligand.)
Sequence of Beta-2 adrenergic receptor (P07550 whole entry): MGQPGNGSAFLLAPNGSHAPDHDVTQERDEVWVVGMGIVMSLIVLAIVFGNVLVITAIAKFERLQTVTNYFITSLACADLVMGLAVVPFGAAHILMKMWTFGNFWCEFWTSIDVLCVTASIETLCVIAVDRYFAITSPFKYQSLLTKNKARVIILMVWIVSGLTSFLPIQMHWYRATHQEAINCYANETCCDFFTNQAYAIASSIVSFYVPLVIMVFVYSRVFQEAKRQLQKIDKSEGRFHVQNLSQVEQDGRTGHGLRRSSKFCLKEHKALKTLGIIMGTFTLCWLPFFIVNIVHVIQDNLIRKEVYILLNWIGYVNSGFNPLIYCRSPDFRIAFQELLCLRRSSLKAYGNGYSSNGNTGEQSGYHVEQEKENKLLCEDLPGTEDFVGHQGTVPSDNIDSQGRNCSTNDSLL
Usually IC50 stands for the concentration that gives 50% inhibition. Low values mean greater potency, high ones weaker potency. In turn, `COc1cc2c(cc1OC)[C@H]([C@H](O)c1ccccc1Cl)NCC2` registered an IC50 above 10000 nM.
As for `COc1cc2c3c(c1OC)-c1ccccc1[C@@H](O)[C@]3(C)NCC2` (relative stereo), the figure is 20 nM.
In turn, `COc1ccc(CCNC[C@H](O)c2ccccc2)cc1OC` displayed an IC50 of 8400 nM.
As for `COc1cc2c(cc1OC)[C@H]([C@H](O)c1ccccc1)NCC2`, the figure is above 10000 nM; as for `COc1cc2c3c(c1OC)-c1ccccc1[C@H](O)[C@H]3NCC2`, 1600 nM.
In the case of `COc1cc2c3c(c1OC)-c1ccccc1[C@@H](O)[C@H]3NCC2` it was 210 nM.
